# Measured values reported in patent publication US11180474B2 (BRISTOL-MYERS SQUIBB COMPANY, priority 2016, dated 2021).
# Columns and labels:
# human TLR7 = molecular target: T1, human TLR7 (Homo sapiens, UniProt Q9NYK1); assay: TLR7 inhibition reporter assay (HEK-Blue cells, SEAP reporter, gardiquimod stimulation); type: cell-based; settings: HEK-Blue cells overexpressing human TLR7, gardiquimod 7.5 μM
# T1 construct: host or cells: HEK-Blue cells
# T1 sequence (Q9NYK1 27-1049): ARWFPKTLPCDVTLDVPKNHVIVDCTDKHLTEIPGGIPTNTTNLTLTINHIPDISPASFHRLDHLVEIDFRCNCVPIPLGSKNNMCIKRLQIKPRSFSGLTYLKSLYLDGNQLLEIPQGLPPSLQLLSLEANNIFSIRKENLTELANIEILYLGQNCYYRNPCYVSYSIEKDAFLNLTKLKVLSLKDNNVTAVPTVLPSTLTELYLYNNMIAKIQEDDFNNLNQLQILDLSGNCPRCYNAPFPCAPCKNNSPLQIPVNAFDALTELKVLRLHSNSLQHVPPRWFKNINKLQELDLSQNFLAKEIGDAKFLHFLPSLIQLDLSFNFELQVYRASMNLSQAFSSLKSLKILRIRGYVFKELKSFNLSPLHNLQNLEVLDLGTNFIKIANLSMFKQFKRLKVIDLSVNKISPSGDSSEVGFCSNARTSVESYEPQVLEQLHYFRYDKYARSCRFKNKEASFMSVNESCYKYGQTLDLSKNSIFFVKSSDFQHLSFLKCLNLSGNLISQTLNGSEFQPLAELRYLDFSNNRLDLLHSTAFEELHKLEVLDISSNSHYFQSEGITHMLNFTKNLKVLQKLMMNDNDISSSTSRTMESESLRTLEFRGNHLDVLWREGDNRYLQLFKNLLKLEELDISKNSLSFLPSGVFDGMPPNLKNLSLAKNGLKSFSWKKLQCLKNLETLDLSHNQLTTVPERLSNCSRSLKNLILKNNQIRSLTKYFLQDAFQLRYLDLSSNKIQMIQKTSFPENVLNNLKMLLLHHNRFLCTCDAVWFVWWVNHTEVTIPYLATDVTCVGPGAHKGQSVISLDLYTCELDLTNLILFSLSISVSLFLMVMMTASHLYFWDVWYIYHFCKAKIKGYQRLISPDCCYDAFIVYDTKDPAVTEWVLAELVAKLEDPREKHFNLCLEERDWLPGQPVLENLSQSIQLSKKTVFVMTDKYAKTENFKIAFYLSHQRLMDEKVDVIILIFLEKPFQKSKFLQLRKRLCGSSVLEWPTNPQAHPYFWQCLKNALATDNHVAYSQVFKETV
# Procedure, shortened: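 22 h, 37° C, 5% CO2 incubation; compounds 0.05 nM-50 μM final; TLR7 cells 15000/well, TLR8 20,000/well. Readout: SEAP via HEK-Blue Detection medium. % inhibition = signal reduction versus agonist + DMSO wells, referenced to known inhibitor.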
# human TLR8 = molecular target: T2, human TLR8 (Homo sapiens, UniProt Q9NR97); assay: TLR8 inhibition reporter assay (HEK-Blue cells, SEAP reporter, R848 stimulation); type: cell-based; settings: HEK-Blue cells overexpressing human TLR8, R848 15.9 μM
# T2 construct: host or cells: HEK-Blue cells
# T2 sequence (Q9NR97 27-1041): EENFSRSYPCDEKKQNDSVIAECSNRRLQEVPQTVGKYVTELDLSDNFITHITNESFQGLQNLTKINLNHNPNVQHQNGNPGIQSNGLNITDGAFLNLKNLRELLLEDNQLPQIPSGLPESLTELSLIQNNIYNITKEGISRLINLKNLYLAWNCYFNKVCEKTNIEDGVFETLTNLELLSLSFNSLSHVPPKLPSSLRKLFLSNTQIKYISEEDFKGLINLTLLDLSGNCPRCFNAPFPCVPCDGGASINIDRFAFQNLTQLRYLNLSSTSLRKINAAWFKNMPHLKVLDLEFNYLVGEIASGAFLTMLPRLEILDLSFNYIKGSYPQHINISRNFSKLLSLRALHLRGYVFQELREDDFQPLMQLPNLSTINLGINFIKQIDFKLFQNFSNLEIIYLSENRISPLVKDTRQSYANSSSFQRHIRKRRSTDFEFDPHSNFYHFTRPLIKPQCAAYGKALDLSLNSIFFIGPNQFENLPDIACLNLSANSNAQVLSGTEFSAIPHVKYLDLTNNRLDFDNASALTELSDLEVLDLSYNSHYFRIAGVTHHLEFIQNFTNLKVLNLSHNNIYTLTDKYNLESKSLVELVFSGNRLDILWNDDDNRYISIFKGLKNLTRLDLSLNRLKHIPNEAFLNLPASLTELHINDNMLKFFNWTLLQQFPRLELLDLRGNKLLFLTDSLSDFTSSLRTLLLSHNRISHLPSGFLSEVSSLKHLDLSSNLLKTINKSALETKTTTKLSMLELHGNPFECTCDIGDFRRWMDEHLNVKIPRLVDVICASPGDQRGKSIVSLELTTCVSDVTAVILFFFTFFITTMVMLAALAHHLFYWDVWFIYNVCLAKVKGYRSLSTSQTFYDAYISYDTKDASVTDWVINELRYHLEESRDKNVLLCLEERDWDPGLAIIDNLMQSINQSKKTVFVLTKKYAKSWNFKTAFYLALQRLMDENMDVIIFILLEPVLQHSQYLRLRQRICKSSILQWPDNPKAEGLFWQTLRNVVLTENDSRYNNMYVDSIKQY
# Procedure: TLR7/8/9 Inhibition Reporter Assays
# Briefly, cells are seeded into Greiner 384 well plates (15000 cells per well for TLR7, 20,000 for TLR8 and 25,000 for TLR9) and then treated with test compounds in DMSO to yield a final dose response concentration range of 0.05 nM-50 μM. […] After a 22 hour incubation at 37° C., 5% CO2, SEAP levels are determined with the addition of HEK-Blue™ Detection reagent (Invivogen), a cell culture medium that allows for detection of SEAP, according to manufacturer's specifications. The percent inhibition is determined as the % reduction in the HEK-Blue signal present in wells treated with agonist plus DMSO alone compared to wells treated with a known inhibitor.
SMILES,IC50 (human TLR7) [µM],IC50 (human TLR8) [µM]
"CCc1c(-c2ccc(OC)c(OC)c2)[nH]c2ccc(C3CCN(C4CCN(Cc5ccc(-c6ccccc6)s5)CC4)CC3)cc12 [Example 141, 2-(3,4-dimethoxyphenyl)-3-ethyl-5-(1′-((5-phenylthiophen-2-yl)methyl)-[1,4′-bipiperidin]-4-yl)-1H-indole]",3.74,9.78
"CCc1c(-c2ccc(OC)c(OC)c2)[nH]c2ccc(C3CCNCC3)cc12 [Example 122, 2-(3,4-dimethoxyphenyl)-3-ethyl-5-(piperidin-4-yl)-1H-indole]",0.057,0.026
"COc1ccc(-c2[nH]c3ccc(C4CCN(C5CCN(C(C)C)CC5)CC4)cc3c2C(C)C)cc1OC [Example 201, 2-(3,4-dimethoxyphenyl)-3-isopropyl-5-(1′-isopropyl-[1,4′-bipiperidin]-4-yl)-1H-indole]",0.119,0.017
"COc1ccc(-c2[nH]c3cc(C)c(C4CCN(C5CCN(C(C)C)CC5)CC4)cc3c2C)cc1OC [Example 115, 2-(3,4-dimethoxyphenyl)-5-(1′-isopropyl-[1,4′-bipiperidin]-4-yl)-3,6-dimethyl-1H-indole-di-trifluoroacetic acid]",0.132,2.23
"CCc1c(-c2ccc(OC)c(OC)c2)[nH]c2ccc(C3CCN(C(=O)c4ccncc4)CC3)cc12 [Example 183, (4-(2-(3,4-dimethoxyphenyl)-3-ethyl-1H-indol-5-yl)piperidin-1-yl)(pyridin-4-yl) methanone]",0.533,0.838
"CCc1c(-c2ccc(OC)c(OC)c2)[nH]c2ccc(C3CCN(C(=O)CNc4nccs4)CC3)cc12 [Example 177, 1-(4-(2-(3,4-dimethoxyphenyl)-3-ethyl-1H-indol-5-yl)piperidin-1-yl)-2-(thiazol-2-ylamino)ethanone]",0.121,0.036
"CCc1c(-c2ccc(OC)c(OC)c2)[nH]c2ccc(C3CCN(C(=O)CNC4CCC(N(C)C)CC4)CC3)cc12 (stereo not drawn) [Example 162, 1-(4-(2-(3,4-dimethoxyphenyl)-3-ethyl-1H-indol-5-yl)piperidin-1-yl)-2-((4-(dimethylamino)cyclohexyl)amino)ethan-1-one]",0.088,0.023

# Further lines, results first:
IC50 (human TLR7) [µM],IC50 (human TLR8) [µM],SMILES
0.014,0.025,"COc1ccc(-c2[nH]c3ccc(C4CCN(C(=O)CN5CCC(N6CCCCC6)CC5)CC4)cc3c2C(C)C)cc1OC [Example 211, 2-([1,4′-bipiperidin]-1′-yl)-1-(4-(2-(3,4-dimethoxyphenyl)-3-isopropyl-1H-indol-5-yl)piperidin-1-yl)ethan-1-one]"
0.013,0.02,"COc1ccc(-c2[nH]c3ccc(C4CCN(C(=O)CNCCO)CC4)cc3c2C(C)C)cc1OC [Example 212, 1-(4-(2-(3,4-dimethoxyphenyl)-3-isopropyl-1H-indol-5-yl)piperidin-1-yl)-2-((2-hydroxyethyl)amino)ethan-1-one]"
0.025,0.021,"COc1ccc(-c2[nH]c3ccc(C4CCN(C(=O)CNC(CO)CO)CC4)cc3c2C(C)C)cc1OC [Example 220, 2-((1,3-dihydroxypropan-2-yl)amino)-1-(4-(2-(3,4-dimethoxyphenyl)-3-isopropyl-1H-indol-5-yl)piperidin-1-yl)ethan-1-one]"
3.57,14.5,"COc1ccc(-c2[nH]c3cc(C)c(C4CCN(C5CCN(C(C)C)CC5)CC4)cc3c2C(C)C)cc1OC [Example 206, 2-(3,4-dimethoxyphenyl)-3-isopropyl-5-(1′-isopropyl-[1,4′-bipiperidin]-4-yl)-6-methyl-1H-indole di trifluoroacetic acid]"
7.3,46.9,"CNCCN1CCC(c2cc3c(C(C)C)c(-c4ccc(OC)c(OC)c4)[nH]c3cc2C)CC1 [Example 207, 2-(4-(2-(3,4-dimethoxyphenyl)-3-isopropyl-6-methyl-1H-indol-5-yl)piperidin-1-yl)-N-methylethan-1-amine]"
